{"source": "paper PMC4210897", "about": "“Antimicrobial Activity of Peptides Derived from Olive Flounder Lipopolysaccharide Binding Protein/Bactericidal Permeability-Increasing Protein (LBP/BPI)” (Marine Drugs, 2014)", "key": {"[1]": {"test_system": "human red blood cells (RBCs, blood type O)", "experiment": "Hemolytic activity assay", "type": "cell-based", "details": "3% hematocrit, 60 min, 37 °C; for Hemolysis against RBCs up to 100 μg/mL: A405, up to concentrations of 100 μg/mL, triplicate averaged", "experimental": "The hemolytic activity of the peptides was determined using human red blood cells (RBCs, blood type O). The RBCs were collected from citric acid-treated blood by centrifugation at 3000× g for 5 min and washed three times with 10 mM PB (pH 7.4) containing 150 mM NaCl to remove the plasma and buffy coat. A suspension of 3% hematocrit in buffer with or without peptides was incubated for 60 min at 37 °C. Hemolysis was expressed as the hemoglobin content obtained from the absorbance of the supernatant at 405 nm after centrifugation at 3000× g for 5 min. A 100% hemolysis was determined based on hemoglobin release after the addition of 0.1% Triton X-100. The hemolysis percentage of the peptides was calculated using the following formula: % Hemolysis = [(Abs405nm in the peptide solution − Abs405nm in buffer)/(Abs405nm in 0.1% Triton X-100 − Abs405nm in buffer)] × 100\nHemolytic assays were performed in triplicate and the results were averaged."}, "S. iniae": {"test_system": "S. iniae", "experiment": "URDA of non-heated and heated peptides", "type": "cell-based, Streptococcus iniae", "details": "non-heated and after 100 °C for 10 min", "experimental": "(§1) The antimicrobial activity of the purified peptide was assessed as described previously. We tested the synthetic peptides against several Gram-positive bacteria including two Bacillus subtilis strains, Micrococcus luteus, Staphylococcus aureus, and Streptococcus iniae, Gram-negative bacteria including three Escherichia coli strains, Aeromonas hydrophila, Edwardsiella tarda, Pseudomonas aeruginosa, Vibrio parahemolyticus, and Salmonella enteric, as well as the yeast Candida albicans. All strains were grown overnight for 18 h in trypticase soy broth (TSB) or sabouraud dextrose broth (SDB) at the appropriate temperature (25 °C for A. hydrophila, E. tarda, P. aeruginosa, S. iniae, and V. parahemolyticus and 37 °C for the other strains). After an overnight incubation, the bacterial and C. albicans suspensions were diluted to a McFarland turbidity standard of 0.5 (Vitek Colorimeter #52-1210; Hach, Loveland, CO, USA) corresponding to ~10^8 CFU/mL for bacteria and ~10^6 CFU/mL for C. albicans. One-half milliliter of diluted bacterial or C. albicans suspension was added to 9.5 mL of underlay gel containing 5 × 10^6 CFU/mL or 5 × 10^4 CFU/mL in 10 mM phosphate buffer (PB; pH 6.6) with 0.03% TSB or 0.03% SDB and 1% Type I (low EEO) agarose. The purified peptide was serially diluted twofold in 5 μL of acidified water (0.01% HAc), and each dilution was added to 2.5-mm-diameter wells made in the 1-mm-thick underlay gels. After incubation for 3 h at either 25 °C (for A. hydrophila, E. tarda, P. aeruginosa, S. iniae, and V. parahemolyticus) or 37 °C (the other strains), the bacterial or yeast suspension was overlaid with 10 mL of double-strength overlay gel containing 6% TSB or 6% SDB with 10 mM PB (pH 6.6) in 1% agarose. Plates were incubated for an additional 18–24 h, after which the clearing zone diameters were measured. After subtracting the diameter of the well, the clearing zone diameter was expressed in units (0.1 mm = 1 U).\n(§2) To investigate the effect of temperature on ofLBP analogs, antimicrobial activity was tested using an ultrasensitive radial diffusion assay (URDA) against two bacteria including V. harveyi and S. iniae, as well as a yeast, C. albicans. To explore thermal stability, the ofLBP analogs were incubated at 100 °C for 10 min. After heat treatment, the peptides were cooled and used for URDA as described above."}, "C. albicans": {"test_system": "C. albicans", "experiment": "URDA of non-heated and heated peptides", "type": "cell-based, Candida albicans", "details": "non-heated and after 100 °C for 10 min", "experimental": "as §1, §2"}, "λ-HindIII-digested DNA": {"test_system": "λ-HindIII-digested DNA", "experiment": "DNA-binding assay (gel retardation, EMSA)", "details": "λ-HindIII-digested DNA 50 ng, 5 min room temperature, 1.0% agarose; for Electrophoretic mobility of DNA at 0.625 μg peptide: peptide 0.625 μg", "experimental": "DNA binding assays were performed as described previously with minor modifications. This test assessed peptide-DNA binding by examining the inhibition of the rate of migration of DNA bands through agarose gels. A commercial molecular weight marker, λ-HindIII-digested DNA (50 ng) (Roche, Basel, Switzerland), was mixed with varying amounts of peptide (0 μg, 0.156 μg, 0.313 μg, 0.625 μg, and 1.25 μg) in 0.01% acetic acid, incubated at room temperature for 5 min, and then electrophoresed in 1.0% agarose gels containing 0.5 μg/mL ethidium bromide (EtBr)."}, "DNA polymerase": {"test_system": "DNA polymerase", "details": "PCR of E. coli 16S rDNA; for DNA polymerase inhibitory ability: 100 ng genomic DNA, 30 cycles", "experimental": "The ofLBP analogs were dissolved in 0.01% acetic acid at a concentration of 1000 μg/mL. To assess PCR inhibition, various concentrations of the ofLBP analogs (2.5, 1.25, 0.625, and 0.313 μg/mL) were added to the respective reaction mixtures. E. coli genomic DNA (100 ng) was used as a template for PCR with the following primer pairs: 16S-F1, 5′-[…]-3′ and 16S-R3, 5′-[…]-3′. The predicted amplicon is ~1.5 kb in length. Each PCR comprised 30 cycles each of 30 s at 95 °C, 30 s at 55 °C, and 1 min at 72 °C. After PCR, all amplicons were electrophoresed in 1.0% agarose gels containing EtBr."}, "E. coli D31": {"test_system": "E. coli D31", "experiment": "URDA, MEC", "type": "cell-based, Escherichia coli", "details": "E. coli D31, Gram −, pH 6.6, 37 °C, triplicate averaged", "experimental": "as §1\nAll tested bacteria and yeast were prepared as described above. The minimal effective concentration (MEC, μg/mL) of the synthetic peptides was calculated as the x-intercept of a plot of units against the log10 of the peptide concentration. […] The antimicrobial assay was performed in triplicate and the results were averaged."}, "B. subtilis KCTC1021": {"test_system": "B. subtilis KCTC1021", "experiment": "Killing kinetic assay", "type": "cell-based, Bacillus subtilis", "details": "10^6 CFU/mL, 37 °C, triplicate averaged", "experimental": "(§3) To determine the killing activities of ofLBP-derived analogs, kinetic studies were performed using B. subtilis KCTC1021 and E. coli ML35p at 1× MEC and 5× MEC concentrations. Overnight culture of B. subtilis KCTC1021 and E. coli ML35p were diluted in TBS to a cell density of 10^6 CFU/mL and 1 mL of each suspension was exposed to each ofLBP-derived analog and incubated at 37 °C overnight. The resulting colonies were counted. Percent killing was calculated as the proportion of live bacteria at a given time point following the addition of peptide compared to the number of bacteria present prior to the addition of peptide. Control cultures of each bacterium were incubated without any peptide and assayed at time points corresponding to the test culture assays to ensure no spontaneous loss of viability. Killing kinetic assays were also performed in triplicate, and the results were averaged."}, "E. coli ML35p": {"test_system": "E. coli ML35p", "experiment": "Killing kinetic assay", "type": "cell-based, Escherichia coli", "details": "10^6 CFU/mL, 37 °C; for Time to kill E. coli ML35p at 5× MEC: triplicate averaged", "experimental": "as §3"}}, "note": "Where no end group is shown, it is not given here."}
{"substance": "KLVKTQLKVLK [ofLBP 4N]", "values": [{"measurement": "Hemolysis against RBCs up to 100 μg/mL", "setting": "[1]", "result": "did not cause hemolysis"}, {"measurement": "Antimicrobial activity against S. iniae (URDA)", "setting": "S. iniae", "result": "did not show any antimicrobial activity"}, {"measurement": "Antimicrobial activity against C. albicans (URDA)", "setting": "C. albicans", "result": "did not show any antimicrobial activity"}, {"measurement": "Electrophoretic mobility of DNA at 0.625 μg peptide", "setting": "λ-HindIII-digested DNA", "result": "slightly inhibited"}, {"measurement": "Electrophoretic mobility of DNA at 1.25 μg peptide", "setting": "λ-HindIII-digested DNA; peptide 1.25 μg", "result": "almost completely inhibited"}, {"measurement": "DNA polymerase inhibitory ability", "setting": "DNA polymerase", "result": "no DNA polymerase inhibitory ability"}]}
{"substance": "MKLVKTWLKVLK-NH2 [ofLBP 6A]", "values": [{"measurement": "Minimal Effectives Concentration", "setting": "E. coli D31", "result": 2.6, "unit": "µg/mL"}, {"measurement": "Hemolytic activity at 50 μg/mL", "setting": "[1]", "result": "did not show significant hemolytic activity"}, {"measurement": "Time to kill B. subtilis KCTC1021 at 1× MEC", "setting": "B. subtilis KCTC1021", "result": "≤ 40", "unit": "min"}, {"measurement": "Time to kill B. subtilis KCTC1021 at 5× MEC", "setting": "B. subtilis KCTC1021", "result": "≤ 10", "unit": "min"}, {"measurement": "Killing of E. coli ML35p at 1× MEC", "setting": "E. coli ML35p", "result": "did not kill"}, {"measurement": "Time to kill E. coli ML35p at 5× MEC", "setting": "E. coli ML35p", "result": "≤ 60", "unit": "min"}, {"measurement": "Antimicrobial activity against S. iniae (URDA)", "setting": "S. iniae", "result": "significant activity"}, {"measurement": "Antimicrobial activity against C. albicans (URDA)", "setting": "C. albicans", "result": "significant activity"}, {"measurement": "Electrophoretic mobility of DNA at 0.625 μg peptide", "setting": "λ-HindIII-digested DNA", "result": "almost completely inhibited"}, {"measurement": "DNA polymerase inhibitory ability", "setting": "DNA polymerase", "result": "strong DNA polymerase inhibitory ability"}, {"measurement": "DNA polymerase inhibition at all tested concentrations", "setting": "DNA polymerase; 0.313–2.5 μg peptide", "result": "complete inhibitory activity"}]}
{"substance": "RFPKLMMKLLV-NH2 [ofLBP 2A]", "values": [{"measurement": "Minimal Effectives Concentration", "setting": "E. coli D31", "result": 0.5, "unit": "µg/mL"}, {"measurement": "Hemolytic activity at 50 μg/mL", "setting": "[1]", "result": "did not show significant hemolytic activity"}, {"measurement": "Hemolytic activity from 50–100 μg/mL", "setting": "[1]; concentrations of 50–100 μg/mL, 100% = 0.1% Triton X-100", "result": "28%–50%"}, {"measurement": "Antimicrobial activity against S. iniae (URDA)", "setting": "S. iniae", "result": "significant activity"}, {"measurement": "Antimicrobial activity against C. albicans (URDA)", "setting": "C. albicans", "result": "significant activity"}]}
{"substance": "KLVKTWLKVLK [ofLBP 5A]", "values": [{"measurement": "Minimal Effectives Concentration", "setting": "E. coli D31", "result": 0.9, "unit": "µg/mL"}, {"measurement": "Hemolysis against RBCs up to 100 μg/mL", "setting": "[1]", "result": "did not cause hemolysis"}, {"measurement": "Antimicrobial activity against C. albicans (URDA)", "setting": "C. albicans", "result": "significant activity"}, {"measurement": "Electrophoretic mobility of DNA at 0.625 μg peptide", "setting": "λ-HindIII-digested DNA", "result": "almost completely inhibited"}, {"measurement": "DNA polymerase inhibitory ability", "setting": "DNA polymerase", "result": "strong DNA polymerase inhibitory ability"}, {"measurement": "DNA polymerase inhibition at 1.25 μg", "setting": "DNA polymerase; 1.25 μg peptide, compared to ofLBP 6A", "result": "less inhibitory activity"}]}
{"substance": "Piscidin 1 [reference compound]", "values": [{"measurement": "Minimal Effectives Concentration", "setting": "E. coli D31", "result": 2.0, "unit": "µg/mL"}, {"measurement": "Time to kill B. subtilis KCTC1021 at 1× MEC", "setting": "B. subtilis KCTC1021", "result": "≤ 40", "unit": "min"}, {"measurement": "Time to kill B. subtilis KCTC1021 at 5× MEC", "setting": "B. subtilis KCTC1021", "result": "≤ 10", "unit": "min"}, {"measurement": "Killing of E. coli ML35p at 1× MEC", "setting": "E. coli ML35p", "result": "did not kill"}, {"measurement": "Time to kill E. coli ML35p at 5× MEC", "setting": "E. coli ML35p", "result": "≤ 40", "unit": "min"}]}
{"substance": "RFPGLMMKLLV-NH2 (C-terminus assumed) [ofLBP 1N]", "values": [{"measurement": "Minimal Effectives Concentration", "setting": "E. coli D31", "result": 1.3, "unit": "µg/mL"}, {"measurement": "Hemolytic activity at 50 μg/mL", "setting": "[1]", "result": "did not show significant hemolytic activity"}, {"measurement": "Antimicrobial activity against S. iniae (URDA)", "setting": "S. iniae", "result": "significant activity"}, {"measurement": "Antimicrobial activity against C. albicans (URDA)", "setting": "C. albicans", "result": "significant activity"}]}
